Experimental data reported in the NIST ThermoML archive (doi:10.1021/je500380x).

Assay: mn = molality of the nth substance listed, in mol/kg
Conditions: 100 kPa, Liquid; for electrical conductivity: Alternating current cell with electrodes; for viscosity: Falling or rolling sphere viscometry; for mass density: Vibrating tube method

CCC(=O)OCCN1CCNCC1 [2-(piperazin-1-yl)ethyl propionate] + O
Conditions | electrical conductivity, 293.15 K [S/m] | electrical conductivity, 298.15 K [S/m] | mass density, 293.15 K [kg/m3] | mass density, 298.15 K [kg/m3] | viscosity, 293.15 K [mPa·s] | viscosity, 298.15 K [mPa·s]
m1 = 0.05 | 0.239 | 0.267 | 1000.1 | 998.94 | 1.031 | 0.92
m1 = 0.0999 | 0.436 | 0.486 | 1002.01 | 1000.81 | 1.081 | 0.962
m1 = 0.1996 | 0.762 | 0.848 | 1005.79 | 1004.54 | 1.172 | 1.039
m1 = 0.3 | 1.028 | 1.15 | 1009.71 | 1008.41 | 1.247 | 1.103
m1 = 0.3997 | 1.25 | 1.4 | 1013.54 | 1012.17 | 1.349 | 1.187
m1 = 0.5001 | 1.406 | 1.6 | 1017.42 | – | 1.464 | 1.289
m1 = 0.5992 | 1.56 | 1.76 | 1021.32 | – | 1.581 | 1.389
m1 = 0.6993 | 1.68 | 1.89 | 1025.14 | – | 1.726 | 1.51
m1 = 0.7997 | 1.77 | 2 | 1029.27 | – | 1.883 | 1.644
m1 = 0.9003 | 1.822 | 2.07 | 1033.09 | – | 2.075 | 1.805
m1 = 0.9988 | 1.85 | 2.12 | 1037.12 | – | 2.263 | 1.964
m1 = 1.199 | 1.86 | 2.13 | 1045.08 | – | 2.77 | 2.388
m1 = 1.402 | 1.8 | 2.06 | 1053.12 | – | 3.472 | 2.91
m1 = 1.6 | 1.68 | 1.94 | 1060.85 | – | 4.338 | 3.684
m1 = 1.802 | 1.523 | 1.76 | 1068.6 | – | 5.445 | 4.58
m1 = 1.998 | 1.35 | 1.57 | 1075.94 | – | 7.039 | 5.865
m1 = 2.2 | 1.16 | 1.36 | 1083.11 | – | 9.362 | 7.721
m1 = 2.402 | 0.955 | 1.16 | 1090.06 | – | 12.4 | 10.14
m1 = 2.6 | 0.779 | 0.931 | 1096.1 | – | 18.48 | 14.88
m1 = 2.798 | 0.595 | 0.738 | 1101.66 | – | 25.9 | 20.54
m1 = 3.002 | 0.461 | 0.578 | 1106.84 | – | 36.82 | 28.69
